Test results from ChEMBL document CHEMBL1134191, “Pharmacophore-based discovery, synthesis, and biological evaluation of 4-phenyl-1-arylalkyl piperidines as dopamine transporter inhibitors” (Bioorg Med Chem Lett, 2001).

Experiments:
[1] = organism: Rattus norvegicus; assay: Inhibition of [3H]-dopamine uptake into striatal membrane preparations; type: functional, Striatum
[2] = organism: Rattus norvegicus; assay: Inhibition of [3H]dopamine uptake by striatal membrane preparations; type: functional, Striatum
[3] = organism: Rattus norvegicus; assay: Inhibitory concentration for [3H]-dopamine uptake by striatal membrane preparations in presence of 50 nM compound 43; type: functional; conditions: Striatum
[4] = organism: Rattus norvegicus; assay: Inhibitory concentration for [3H]dopamine uptake by striatal membrane preparations in presence of 500 nM compound 5; type: functional; conditions: Striatum
[5] = organism: Rattus norvegicus; assay: Inhibitory concentration for [3H]-dopamine uptake by striatal membrane preparations in presence of 1000 nM compound 5; type: functional; conditions: Striatum
[6] = organism: Rattus norvegicus; assay: Inhibitory concentration for [3H]dopamine uptake by striatal membrane preparations in presence of 20 nM compound 43; type: functional; conditions: Striatum

| Compound | Ki [1] [nM] | other results |
| --- | --- | --- |
| Clc1ccc(OCCN2CCC(c3ccc(Cl)cc3)CC2)cc1 | 90 |  |
| Fc1ccc(OCCN2CCC(c3ccccc3)CC2)cc1 | 2720 |  |
| Fc1ccc(OCCN2CCC(c3ccc(F)cc3)CC2)cc1 |  | Ki [2]: 840 nM |
| Fc1ccc(CCN2CCC(c3ccc(F)cc3)CC2)cc1 | 1360 |  |
| Fc1ccc(CCCCN2CCC(c3ccc(F)cc3)CC2)cc1 | 2540 |  |
| OC1(c2ccccc2)CCN(CCOc2ccc(F)cc2)CC1 | 17600 |  |
| O=C(CCN1CCC(c2ccccc2)CC1)c1ccc(F)cc1 | 1560 |  |
| Fc1ccc(CN2CCC(c3ccc(F)cc3)CC2)cc1 | > 10000 |  |
| O=C(CCCN1CCC(c2ccc(F)cc2)CC1)c1ccc(F)cc1 | 3170 |  |
| O=C(CN1CCC(c2ccc(F)cc2)CC1)c1ccc(F)cc1 | 4330 |  |
| O=C(CCN1CCC(c2ccc(F)cc2)CC1)c1ccc(F)cc1 | 2670 |  |
| COC(=O)[C@H]1[C@@H](OC(=O)c2ccccc2)C[C@@H]2CC[C@H]1N2C [COCAINE] |  | IC50 [3]: 696 nM; IC50 [4]: 538 nM; IC50 [5]: 686 nM; IC50 [6]: 490 nM |
